ChEMBL document CHEMBL5120762, “Synthesis of 8-Fluoroneocryptolepine and Evaluation for Cytotoxic Activity against AGS Cancer Cells” (J Nat Prod, 2022)
Activity calls are given as the source filed them. The calls are words filed in the database; no cut-off is given here.

How the values were obtained:
[1] = Cytotoxicity against human GES1 cells assessed as reduction in cell viability measured after 48 hrs by MTT assay; assay type: toxicity, cell-based
AGS [2] = assay: Cytotoxicity against human AGS cells assessed as reduction in cell viability measured after 48 hrs by MTT assay; assay type: functional, cell-based
AGS [3] = assay: Induction of apoptosis in human AGS cells assessed as necrotic cells at 50 nM measured after 48 hrs by Annexin V-Alexa Fluor 488/propidium iodide staining based flow cytometry (reference value: 0.9%); assay type: functional
AGS [4] = assay: Induction of apoptosis in human AGS cells assessed as up regulation of cleaved caspase-3 expression at 50 nM measured after 48 hrs by Western blot analysis; assay type: functional, cell-based
AGS [5] = assay: Induction of cell cycle arrest in human AGS cells assessed as reduction in CDK1 gene expression at 50 nM measured after 48 hrs by RT-qPCR analysis; assay type: functional, cell-based
AGS [6] = assay: Up regulation of E-cadherin expression in human AGS cells at 50 nM measured after 48 hrs by Western blot analysis; assay type: functional, cell-based
AGS [7] = assay: Induction of apoptosis in human AGS cells assessed as viable cells at 250 nM measured after 48 hrs by Annexin V-Alexa Fluor 488/propidium iodide staining based flow cytometry (reference value: 95.6%); assay type: functional; details: read-out: Activity
AGS [8] = assay: Induction of apoptosis in human AGS cells measured after 48 hrs by Annexin V-Alexa Fluor 488/propidium iodide staining based flow cytometry; assay type: functional, cell-based; details: dose 10-250 nM, DDE = dose-dependent effect
AGS [9] = assay: Down regulation of PI3KCA expression in human AGS cells at 50 nM measured after 48 hrs by Western blot analysis; assay type: functional, cell-based
AGS [10] = assay: Cell cycle arrest in human AGS cells assessed as accumulation at G0/G1 phase at 10 nM measured after 24 hrs by propidium iodide staining based flow cytometry (reference value: 39.77%); assay type: functional
AGS [11] = assay: Cell cycle arrest in human AGS cells assessed as accumulation at G2/M phase at 20 nM measured after 24 hrs by propidium iodide staining based flow cytometry (reference value: 16.56%); assay type: functional
AGS [12] = assay: Induction of apoptosis in human AGS cells assessed as early apoptotic cells at 10 nM measured after 48 hrs by Annexin V-Alexa Fluor 488/propidium iodide staining based flow cytometry (reference value: 0.4%); assay type: functional
AGS [13] = assay: Induction of morphological changes in human AGS cells assessed as conversion pf nuclear pyknosis into dense matter at 50 nM measured after 48 hrs; assay type: functional, cell-based
AGS [14] = assay: Induction of apoptosis in human AGS cells assessed as viable cells at 50 nM measured after 48 hrs by Annexin V-Alexa Fluor 488/propidium iodide staining based flow cytometry (reference value: 95.6%); assay type: functional; details: read-out: Activity
AGS [15] = assay: Induction of morphological changes in human AGS cells assessed as cytoplasm concentration at 50 nM measured after 48 hrs; assay type: functional, cell-based
PANC-1 = assay: Cytotoxicity against human PANC-1 cells assessed as reduction in cell viability measured after 48 hrs by MTT assay; assay type: functional, cell-based; details: PANC-1, 48 h
AGS [16] = assay: Cell cycle arrest in human AGS cells assessed as accumulation at G0/G1 phase at 20 nM measured after 24 hrs by propidium iodide staining based flow cytometry (reference value: 39.77%); assay type: functional
AGS [17] = assay: Induction of apoptosis in human AGS cells assessed as chromatin shrinkage at 250 nM measured after 48 hrs by Hoechst 33258 staining based fluorescence microscopy; assay type: functional, cell-based
AGS [18] = assay: Induction of apoptosis in human AGS cells assessed as late apoptotic cells at 250 nM measured after 48 hrs by Annexin V-Alexa Fluor 488/propidium iodide staining based flow cytometry (reference value: 3.1%); assay type: functional
AGS [19] = assay: Induction of apoptosis in human AGS cells assessed as early apoptotic cells at 250 nM measured after 48 hrs by Annexin V-Alexa Fluor 488/propidium iodide staining based flow cytometry (reference value: 0.4%); assay type: functional
AGS [20] = assay: Induction of morphological changes in human AGS cells assessed as cell rounding at 50 to 250 nM measured after 48 hrs; assay type: functional, cell-based; details: dose 50-250 nM
AGS [21] = assay: Cytotoxicity against human AGS cells assessed as reduction in cell viability at 10 to 250 nM by MTT assay; assay type: functional, cell-based; details: dose 10-250 nM, time 24-72 hrs, TDE = time-dependent effect
AGS [22] = assay: Increase in MEK mRNA expression in human AGS cells at 50 nM measured after 48 hrs by RT-qPCR analysis; assay type: functional, cell-based
AGS [23] = assay: Inhibition of PI3K in human AGS cells assessed as decrease in AKT expression at 50 nM measured after 48 hrs by Western blot analysis; assay type: cell-based
AGS [24] = assay: Induction of morphological changes in human AGS cells assessed as appearance of loosely arranged cells at 50 to 250 nM measured after 48 hrs; assay type: functional, cell-based; details: dose 50-250 nM
AGS [25] = assay: Induction of apoptosis in human AGS cells assessed as nuclear fragmentation at 250 nM measured after 48 hrs by Hoechst 33258 staining based fluorescence microscopy; assay type: functional, cell-based
AGS [26] = assay: Induction of apoptosis in human AGS cells assessed as late apoptotic cells at 50 nM measured after 48 hrs by Annexin V-Alexa Fluor 488/propidium iodide staining based flow cytometry (reference value: 3.1%); assay type: functional
AGS [27] = assay: Induction of cell cycle arrest in human AGS cells assessed as reduction in CDK1 expression at 50 nM measured after 48 hrs by Western blot analysis; assay type: functional, cell-based
AGS [28] = assay: Cell cycle arrest in human AGS cells assessed as accumulation at G2/M phase at 10 nM measured after 24 hrs by propidium iodide staining based flow cytometry (reference value: 16.56%); assay type: functional
AGS [29] = assay: Antimigratory activity against human AGS cells measured after 48 hrs by crystal violet staining based transwell assay; assay type: functional, cell-based; details: dose 10-20 nM, DDE = dose-dependent effect
SMMC-7721 = assay: Cytotoxicity against human SMMC-7721 cells assessed as reduction in cell viability measured after 48 hrs by MTT assay; assay type: functional, cell-based; details: SMMC-7721, 48 h
AGS [30] = assay: Induction of morphological changes in human AGS cells assessed as weak cell adhesion at 50 to 250 nM measured after 48 hrs; assay type: functional, cell-based; details: dose 50-250 nM
AGS [31] = assay: Induction of cell cycle arrest in human AGS cells assessed as reduction in cyclinB1 gene expression at 50 nM measured after 48 hrs by RT-qPCR analysis; assay type: functional, cell-based
AGS [32] = assay: Reduction in beta-catenin mRNA expression in human AGS cells at 50 nM measured after 48 hrs by RT-qPCR analysis; assay type: functional, cell-based
AGS [33] = assay: Cell cycle arrest in human AGS cells assessed as accumulation at S phase at 10 nM measured after 24 hrs by propidium iodide staining based flow cytometry (reference value: 43.66%); assay type: functional
AGS [34] = assay: Antimigratory activity against human AGS cells assessed as number of migrating cells at 10 to 20 nM measured after 48 hrs by crystal violet staining based transwell assay (reference value: 293); assay type: functional; details: dose 10-20 nM
AGS [35] = assay: Induction of apoptosis in human AGS cells assessed as appearance of apoptotic bodies at 250 nM measured after 48 hrs by Hoechst 33258 staining based fluorescence microscopy; assay type: functional, cell-based
AGS [36] = assay: Inhibition of PI3K in human AGS cells assessed as decrease in AKT phosphorylation at 50 nM measured after 48 hrs by Western blot analysis; assay type: cell-based
AGS [37] = assay: Induction of mitochondrial membrane potential loss in human AGS cells assessed as increase in green fluorescence at 10 to 250 nM measured after 48 hrs by JC-10 staining based fluorescence microscopy; assay type: functional, cell-based; details: dose 10-250 nM
AGS [38] = assay: Induction of apoptosis in human AGS cells assessed as appearance of bright blue fluorescence at 250 nM measured after 48 hrs by Hoechst 33258 staining based fluorescence microscopy; assay type: functional, cell-based
AGS [39] = assay: Increase in GSK-3beta mRNA expression in human AGS cells at 50 nM measured after 48 hrs by RT-qPCR analysis; assay type: functional, cell-based
AGS [40] = assay: Induction of apoptosis in human AGS cells assessed as necrotic cells at 10 nM measured after 48 hrs by Annexin V-Alexa Fluor 488/propidium iodide staining based flow cytometry (reference value: 0.9%); assay type: functional
AGS [41] = assay: Induction of apoptosis in human AGS cells assessed as necrotic cells at 250 nM measured after 48 hrs by Annexin V-Alexa Fluor 488/propidium iodide staining based flow cytometry (reference value: 0.9%); assay type: functional
HCT-116 = assay: Cytotoxicity against human HCT-116 cells assessed as reduction in cell viability measured after 48 hrs by MTT assay; assay type: functional, cell-based; details: HCT-116, 48 h
AGS [42] = assay: Induction of apoptosis in human AGS cells assessed as viable cells at 10 nM measured after 48 hrs by Annexin V-Alexa Fluor 488/propidium iodide staining based flow cytometry (reference value: 95.6%); assay type: functional; details: read-out: Activity
AGS [43] = assay: Cell cycle arrest in human AGS cells assessed as accumulation at S phase at 20 nM measured after 24 hrs by propidium iodide staining based flow cytometry (reference value: 43.66%); assay type: functional
AGS [44] = assay: Increase in PI3KCA mRNA expression in human AGS cells at 50 nM measured after 48 hrs by RT-qPCR analysis; assay type: functional, cell-based
AGS [45] = assay: Induction of apoptosis in human AGS cells assessed as late apoptotic cells at 10 nM measured after 48 hrs by Annexin V-Alexa Fluor 488/propidium iodide staining based flow cytometry (reference value: 3.1%); assay type: functional
AGS [46] = assay: Inhibition of PI3K in human AGS cells assessed as decrease in AKT mRNA expression at 50 nM measured after 48 hrs by RT-qPCR analysis; assay type: cell-based
AGS [47] = assay: Induction of apoptosis in human AGS cells assessed as early apoptotic cells at 50 nM measured after 48 hrs by Annexin V-Alexa Fluor 488/propidium iodide staining based flow cytometry (reference value: 0.4%); assay type: functional

O=c1[nH]cc(F)c(=O)[nH]1 [FLUOROURACIL]
IC50 at 48 h [1]: > 100 µM
IC50 (AGS [2]): 58 µM

Cn1c2nc3cc(F)ccc3c-2cc2ccccc21
Activity (AGS [3]): 9.5%
Activity (AGS [4]): Active
Activity (AGS [5]): Active
Activity (AGS [6]): Active
viability at 0.25 µM (AGS [7]): 24.3%
Activity (AGS [8]): Dde
Activity (AGS [9]): Active
Activity (AGS [10]): 35.82%
Activity (AGS [11]): 24.97%
Activity (AGS [12]): 1.8%
Activity (AGS [13]): Active
viability at 0.05 µM (AGS [14]): 69.8%
Activity (AGS [15]): Active
IC50 (PANC-1): > 50 µM
Activity (AGS [16]): 29.43%
Activity (AGS [17]): Active
Activity (AGS [18]): 37.1%
Activity (AGS [19]): 7.7%
Activity (AGS [20]): Active
Activity (AGS [21]): Tde
Activity (AGS [22]): Active
inhibition (AGS [23]): Active
Activity (AGS [24]): Active
Activity (AGS [25]): Active
Activity (AGS [26]): 17.9%
Activity (AGS [27]): Active
Activity (AGS [28]): 21.61%
Activity (AGS [29]): Dde
IC50 (SMMC-7721): 52 µM
Activity (AGS [30]): Active
Activity (AGS [31]): Active
Activity (AGS [32]): Active
Activity (AGS [33]): 42.57%
Activity (AGS [34]): 66
Activity (AGS [35]): Active
IC50 at 48 h [1]: 40 µM
inhibition (AGS [36]): Active
Activity (AGS [37]): Active
Activity (AGS [38]): Active
Activity (AGS [39]): Active
Activity (AGS [40]): 2.2%
IC50 (AGS [2]): 0.043 µM
Activity (AGS [2]; DDE = dose-dependent effect): Dde
Activity (AGS [41]): 30.9%
IC50 (HCT-116): 18 µM
viability at 0.01 µM (AGS [42]): 88.6%
Activity (AGS [43]): 45.6%
Activity (AGS [44]): Active
Activity (AGS [45]): 7.3%
inhibition (AGS [46]): Active
Activity (AGS [47]): 2.9%
